For this assay, the target named is human KAT II (hKAT II) enzyme (Homo sapiens, UniProt Q8N5Z0). Nature of the assay: KAT II Inhibition Spectra Assay. The note with it: Table 5; hKAT II, decrease in OD370, 37° C., 15-20 h; read-out: KATII IC50. The class given is biochemical. The method, then: Formation of kynurenic acid (KYNA) is indirectly assessed by a decrease in light absorbance at 370 nm (OD370) as the L-kynurenine (KYN) substrate is converted by the human KAT II (hKAT II) enzyme into KYNA. An inhibitor would therefore inhibit the decrease in OD370.
The protocol was performed by placing the following reagents into a Costar 384 well black plate (30 μL total assay volume/well): • 10 μL of 3× concentrated compound; • 10 μL of 3× concentrated substrate mix (BGG (Sigma G-5009); 3 mM L-Kynurenine in 150 mM Tris Acetate (Sigma K3750); 3 mM α-ketoglutaric acid in 150 mM Tris Acetate (Sigma K2010); and 210 μM pyridoxal 5-phosphate (PLP) in 150 mM Tris Acetate (Sigma 9255)); and • 10 μL of 3× concentrated enzyme (15 nM enzyme in 150 mM Tris Acetate with 0.3% bovine serum).
Plates were sealed and incubated at 37° C. for 15-20 h before reading OD370 on a SpectraMax Plus plate reader. IC50s were generated by comparing the efficacy of compounds across a concentration range to inhibit a reduction in the OD370 value relative to assay wells with DMSO added in place of concentrated compound.

Structures are written as SMILES. Counter-ions that a name gives are not always drawn.

Sequence of human KAT II (hKAT II) enzyme (Q8N5Z0 30-425): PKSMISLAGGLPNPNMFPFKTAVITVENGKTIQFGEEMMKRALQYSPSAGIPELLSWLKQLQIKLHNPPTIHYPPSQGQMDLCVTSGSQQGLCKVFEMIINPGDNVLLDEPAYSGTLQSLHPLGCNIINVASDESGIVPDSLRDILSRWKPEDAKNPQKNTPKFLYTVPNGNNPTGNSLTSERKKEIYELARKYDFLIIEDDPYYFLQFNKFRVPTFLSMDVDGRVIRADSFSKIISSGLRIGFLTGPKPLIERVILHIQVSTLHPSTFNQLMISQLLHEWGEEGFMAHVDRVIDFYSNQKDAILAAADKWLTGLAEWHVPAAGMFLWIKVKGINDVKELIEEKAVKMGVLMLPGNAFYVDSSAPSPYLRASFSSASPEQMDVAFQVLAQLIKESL

By IC50 is commonly meant the midpoint of a concentration-inhibition curve. On to `NC1Cc2cccnc2N(O)C1=O` (stereo not shown) [Example 1, 3-amino-1-hydroxy-3,4-dihydro-1,8-naphthyridin-2(1H)-one, trifluoroacetate salt], for which the half-inhibitory concentration (IC50) came out at 52.7 nM. Take `NC1Cc2cc(F)ccc2N(O)C1=O` (stereo not shown) [Example 2, 3-amino-6-fluoro-1-hydroxy-3,4-dihydroquinolin-2(1H)-one, hydrochloride salt]: the half-maximal inhibitory concentration (IC50) is 23.4 nM. Take `NC1Cc2cccc(C(F)(F)F)c2N(O)C1=O` (stereo not shown) [Example 3, 3-amino-1-hydroxy-8-(trifluoromethyl)-3,4-dihydroquinolin-2(1H)-one]: the half-inhibitory concentration (IC50) worked out at 204 nM. For the compound `N[C@@H]1Cc2ccc(Br)cc2N(O)C1=O` [Example 5, (3R)-3-amino-7-bromo-1-hydroxy-3,4-dihydroquinolin-2(1H)-one], the IC50 amounted to 131 nM. With `N[C@H]1Cc2ccc(Br)cc2N(O)C1=O` [Example 6, (3S)-3-amino-7-bromo-1-hydroxy-3,4-dihydroquinolin-2(1H)-one], the IC50 was determined as 25.4 nM. In the case of `C[C@H]1c2ccccc2N(O)C(=O)[C@H]1N` [Example 7, (3S,4S)-3-amino-1-hydroxy-4-methyl-3,4-dihydroquinolin-2(1H)-one, hydrochloride salt], the IC50 is 3280 nM. `Cc1cc(Cl)cc2c1N(O)C(=O)C(N)C2` (stereo not shown) [Example 8, 3-amino-6-chloro-1-hydroxy-8-methyl-3,4-dihydroquinolin-2(1H)-one]: the half-maximal inhibitory concentration (IC50) was 608 nM. Turning to `NC1Cc2ncccc2N(O)C1=O` (stereo not shown) [Example 9, 3-amino-1-hydroxy-3,4-dihydro-1,5-naphthyridin-2(1H)-one, dihydrochloride salt], the half-inhibitory concentration (IC50) amounted to 2230 nM. `NC1Cc2cc(C(F)(F)F)ccc2N(O)C1=O` (stereo not shown) [Example 10, 3-amino-1-hydroxy-6-(trifluoromethyl)-3,4-dihydroquinolin-2(1H)-one, hydrochloride salt]: the IC50 amounted to 73.7 nM. `NC1Cc2c(ccc3ccccc23)N(O)C1=O` (stereo not shown) [Example 11, 2-amino-4-hydroxy-1,2-dihydrobenzo[f]quinolin-3(4H)-one]: the IC50 is 121 nM. For the compound `COc1cccc2c1C[C@H](N)C(=O)N2O` [Example 12, (3S)-3-amino-1-hydroxy-5-methoxy-3,4-dihydroquinolin-2(1H)-one, hydrochloride salt], the IC50 stood at 379 nM.

Regarding `COc1cccc(-c2ccc3c(c2)N(O)C(=O)C(N)C3)c1` (stereo not shown) [Example 13, 3-amino-1-hydroxy-7-(3-methoxyphenyl)-3,4-dihydroquinolin-2(1H)-one, hydrochloride salt], the half-inhibitory concentration (IC50) stood at 57.3 nM. As for `N[C@@H]1Cc2ccccc2N(O)C1=O` [Example 14], the half-maximal inhibitory concentration (IC50) turned out to be 270 nM. For `NC1Cc2ccc(Cl)cc2N(O)C1=O` (stereo not shown) [Example 15] the value was 11.1 nM; for `NC1Cc2cc(Cl)ccc2N(O)C1=O` (stereo not shown) [Example 16], 22.7 nM.

Consider `Cc1ccc2c(c1)N(O)C(=O)C(N)C2` (stereo not shown) [Example 17], for which the IC50 turned out to be 95.1 nM. Turning to `Cc1ccc2c(c1)CC(N)C(=O)N2O` (stereo not shown) [Example 18], the half-inhibitory concentration (IC50) is 139 nM. With `Cc1cccc2c1N(O)C(=O)C(N)C2` (stereo not shown) [Example 19], the half-maximal inhibitory concentration (IC50) was 3040 nM. Consider `N[C@H]1Cc2cccc(C(F)(F)F)c2N(O)C1=O` [Example 20], for which the IC50 was 127 nM. On to `NC1Cc2cc(C3CC3)ccc2N(O)C1=O` (stereo not shown) [Example 21], for which the 50% inhibitory concentration (IC50) turned out to be 46.2 nM. Take `N[C@H]1Cc2c(Cl)cccc2N(O)C1=O` [Example 22]: the concentration for half-maximal inhibition (IC50) amounted to 45.2 nM. On to `NC1Cc2cc(Cl)cc(C(F)(F)F)c2N(O)C1=O` (stereo not shown) [Example 23], for which the IC50 turned out to be 65.3 nM.

With `N[C@H]1Cc2cc(Br)cc(C(F)(F)F)c2N(O)C1=O` [Example 24], the 50% inhibitory concentration (IC50) stood at 50 nM. As to `CC(C)Oc1ccc2c(c1)N(O)C(=O)[C@@H](N)C2` [Example 25], the half-maximal inhibitory concentration (IC50) stood at 48.4 nM.

As to `CCc1ccc2c(c1)N(O)C(=O)C(N)C2` (stereo not shown) [Example 26], the half-maximal inhibitory concentration (IC50) came out at 88 nM. Turning to `N[C@H]1Cc2c(F)cccc2N(O)C1=O` [Example 27], the 50% inhibitory concentration (IC50) came to 51.9 nM. Consider `N[C@H]1Cc2cc(-c3ccc(C(F)(F)F)cc3)cc(C(F)(F)F)c2N(O)C1=O` [Example 28], for which the IC50 turned out to be 1330 nM. Take `COc1ccc2c(c1)N(O)C(=O)C(N)C2` (stereo not shown) [Example 29]: the IC50 came to 10.5 nM. With `NC1Cc2ccc(C3CC3)cc2N(O)C1=O` (stereo not shown) [Example 30], the IC50 is 23.7 nM. On to `N[C@H]1Cc2cc(Cl)cc(F)c2N(O)C1=O` [Example 31], for which the concentration for half-maximal inhibition (IC50) was 49.7 nM.

Take `N[C@H]1Cc2cc(OC(F)(F)F)ccc2N(O)C1=O` [Example 32]: the 50% inhibitory concentration (IC50) turned out to be 35.9 nM. `N#Cc1cccc2c1N(O)C(=O)C(N)C2` (stereo not shown) [Example 33]: the IC50 was determined as 33 nM. For the compound `N[C@H]1Cc2ccc(OCc3ccccc3)cc2N(O)C1=O` [Example 34], the IC50 amounted to 35.6 nM.

With `N[C@H]1Cc2cc(Cl)cc(C(F)(F)F)c2N(O)C1=O` [Example 35], the concentration for half-maximal inhibition (IC50) came out at 49.2 nM. For `N[C@H]1Cc2cccc(F)c2N(O)C1=O` [Example 36] the value was 79.3 nM; for `N[C@H]1Cc2cccc(OC(F)(F)F)c2N(O)C1=O` [Example 37], 34.1 nM; for `NC1Cc2ccc(-c3cccc(OC(F)(F)F)c3)cc2N(O)C1=O` (stereo not shown) [Example 38, 3-amino-1-hydroxy-7-[3-(trifluoromethoxy)phenyl]-3,4-dihydroquinolin-2(1H)-one, trifluoroacetate salt], 133 nM. For the compound `Cc1ccc(-c2ccc3c(c2)N(O)C(=O)C(N)C3)cc1` (stereo not shown) [Example 39, 3-amino-1-hydroxy-7-(4-methylphenyl)-3,4-dihydroquinolin-2(1H)-one, trifluoroacetate salt], the IC50 came to 136 nM. With `NC1Cc2ccc(-c3cccc(F)c3F)cc2N(O)C1=O` (stereo not shown) [Example 40, 3-amino-7-(2,3-difluorophenyl)-1-hydroxy-3,4-dihydroquinolin-2(1H)-one, trifluoroacetate salt], the 50% inhibitory concentration (IC50) was 122 nM.

For the compound `NC1Cc2ccc(-c3ccccc3OC(F)(F)F)cc2N(O)C1=O` (stereo not shown) [Example 41, 3-amino-1-hydroxy-7-[2-(trifluoromethoxy)phenyl]-3,4-dihydroquinolin-2(1H)-one, trifluoroacetate salt], the half-maximal inhibitory concentration (IC50) worked out at 257 nM. As to `NC1Cc2ccc(-c3ccccc3)cc2N(O)C1=O` (stereo not shown) [Example 42, 3-amino-1-hydroxy-7-phenyl-3,4-dihydroquinolin-2(1H)-one, trifluoroacetate salt], the IC50 amounted to 101 nM. The same measure for `NC1Cc2ccc(-c3cc(Cl)ccc3Cl)cc2N(O)C1=O` (stereo not shown) [Example 43, 3-amino-7-(2,5-dichlorophenyl)-1-hydroxy-3,4-dihydroquinolin-2(1H)-one, trifluoroacetate salt]: 133 nM; for `NC1Cc2ccc(-c3ccc(F)c(F)c3)cc2N(O)C1=O` (stereo not shown) [Example 44, 3-amino-7-(3,4-difluorophenyl)-1-hydroxy-3,4-dihydroquinolin-2(1H)-one, trifluoroacetate salt]: 118 nM; for `NC1Cc2ccc(-c3ccccc3Cl)cc2N(O)C1=O` (stereo not shown) [Example 45, 3-amino-7-(2-chlorophenyl)-1-hydroxy-3,4-dihydroquinolin-2(1H)-one, trifluoroacetate salt]: 235 nM.

For `NC1Cc2ccc(-c3cccc(C(F)(F)F)c3)cc2N(O)C1=O` (stereo not shown) [Example 46, 3-amino-1-hydroxy-7-[3-(trifluoromethyl)phenyl]-3,4-dihydroquinolin-2(1H)-one, trifluoroacetate salt], the IC50 was determined as 128 nM. The same measure for `Cc1cccc(-c2ccc3c(c2)N(O)C(=O)C(N)C3)c1C` (stereo not shown) [Example 47, 3-amino-7-(2,3-dimethylphenyl)-1-hydroxy-3,4-dihydroquinolin-2(1H)-one, trifluoroacetate salt]: 118 nM; for `CN(C)c1ccc(-c2ccc3c(c2)N(O)C(=O)C(N)C3)cn1` (stereo not shown) [Example 48, 3-amino-7-[6-(dimethylamino)pyridin-3-yl]-1-hydroxy-3,4-dihydroquinolin-2(1H)-one, trifluoroacetate salt]: 523 nM.

In the case of `COc1ccc(-c2ccc3c(c2)N(O)C(=O)C(N)C3)cc1F` (stereo not shown) [Example 49, 3-amino-7-(3-fluoro-4-methoxyphenyl)-1-hydroxy-3,4-dihydroquinolin-2(1H)-one, trifluoroacetate salt], the IC50 was determined as 105 nM.

Take `NC1Cc2ccc(-c3cc(F)ccc3F)cc2N(O)C1=O` (stereo not shown) [Example 50, 3-amino-7-(2,5-difluorophenyl)-1-hydroxy-3,4-dihydroquinolin-2(1H)-one, trifluoroacetate salt]: the IC50 amounted to 103 nM. The same measure for `NC1Cc2ccc(-c3ccco3)cc2N(O)C1=O` (stereo not shown) [Example 51, 3-amino-7-(2-furyl)-1-hydroxy-3,4-dihydroquinolin-2(1H)-one, trifluoroacetate salt]: 101 nM; for `NC1Cc2ccc(-c3cccc(Cl)c3)cc2N(O)C1=O` (stereo not shown) [Example 52, 3-amino-7-(3-chlorophenyl)-1-hydroxy-3,4-dihydroquinolin-2(1H)-one, trifluoroacetate salt]: 139 nM. Turning to `NC1Cc2ccc(-c3ccc(C(F)(F)F)cc3)cc2N(O)C1=O` (stereo not shown) [Example 53, 3-amino-1-hydroxy-7-[4-(trifluoromethyl)phenyl]-3,4-dihydroquinolin-2(1H)-one, trifluoroacetate salt], the half-inhibitory concentration (IC50) is 206 nM.

The record behind these values is US8183238B2, “Bicyclic and tricyclic compounds as KAT II inhibitors” (priority 2009, dated 2012).
